These results are taken from ChEMBL document CHEMBL1201862, “PubChem BioAssay data set” (2004).

Each structure is given as a SMILES string.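 Each compound was tested at five concentrations against cells in 96-well plates for 48 hours. Here, GI50 denotes the concentration required for 50% inhibition of growth.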 Active and inactive are the calls of the source. No stated cut-off is given here; in the data, active = GI50 up to about 1.1 µM and inactive = higher. Where only a bound is given, the exact number is not on record here.

Some test systems named below: HT-29; OVCAR-8; U-251; M14; SF-295; OVCAR-3; HCT-15; SW-620; SK-MEL-28; MCF7; RXF 393; A549; SK-MEL-5; NCI-H522; PC-3; CAKI-1; MDA-MB-231; SN12C; OVCAR-4; HOP-92.
What all share (test): NCI tumour cell line growth inhibition, 48 h

With `O=[N+]([O-])c1ccc(CSC2=C(c3ccc(Cl)cc3)S/C(=C3\SC(SCc4ccc([N+](=O)[O-])cc4)=C(c4ccc(Cl)cc4)S3)S2)cc1`, the GI50 with HT-29, with OVCAR-8, with U-251, with M14, with SF-295 and with OVCAR-3 was > 100 µM (inactive) in each case. Moreover, the GI50 was above 100 µM in the assay on HCT-15; > 100 µM (inactive) with SW-620; > 100 µM (inactive) with SK-MEL-28; > 100 µM (inactive) in the assay with MCF7; > 100 µM (inactive) with RXF 393; > 100 µM (inactive) in the assay on A549. Further, the GI50 with SK-MEL-5, in the assay on NCI-H522, with PC-3, in the assay with CAKI-1, in the assay with MDA-MB-231 and in the assay with SN12C was > 100 µM (inactive) throughout. Moreover, the figures for the GI50 with OVCAR-4 and in the assay with HOP-92 were > 100 µM (inactive) and < 0.01 µM (active), respectively.
Regarding `CC(Oc1ccccc1Cl)C(=O)NN1C(=O)CC(=O)NC1=S` (stereo not given), the GI50 is > 100 µM (inactive) with HT-29; > 100 µM (inactive) in the assay on OVCAR-8; > 100 µM (inactive) with U-251; > 100 µM (inactive) in the assay with M14; 89.5 µM (inactive) in the assay with SF-295; > 100 µM (inactive) with OVCAR-3. Moreover, the GI50 was above 100 µM in the assay with HCT-15; > 100 µM (inactive) in the assay on SW-620; > 100 µM (inactive) in the assay on SK-MEL-28; > 100 µM (inactive) in the assay with MCF7; > 100 µM (inactive) with RXF 393; > 100 µM (inactive) in the assay with A549. For the same compound, the GI50 in the assay on SK-MEL-5, with NCI-H522, with PC-3, in the assay with CAKI-1, in the assay with MDA-MB-231 and with SN12C was > 100 µM (inactive) in each case. The GI50 in the assay with OVCAR-4 and in the assay with HOP-92 was > 100 µM (inactive) in each case.
With `CCOC(=O)C(CCN1CCC2(CC1)C(=O)N(C)CN2c1ccccc1)C(=O)OCC`, the GI50 with HT-29, in the assay on OVCAR-8, with U-251, in the assay with M14, with SF-295 and with OVCAR-3 was > 100 µM (inactive) throughout. For the same compound, the GI50 was above 100 µM in the assay with HCT-15; > 100 µM (inactive) in the assay on SW-620; > 100 µM (inactive) in the assay on SK-MEL-28; > 100 µM (inactive) in the assay with MCF7; > 100 µM (inactive) in the assay with RXF 393; > 100 µM (inactive) with A549. Moreover, the GI50 with SK-MEL-5, in the assay on NCI-H522, in the assay on PC-3, in the assay on CAKI-1, in the assay with MDA-MB-231 and with SN12C was > 100 µM (inactive) in each case. In addition, the GI50 in the assay on OVCAR-4 and with HOP-92 was > 100 µM (inactive) in each case.
On to `CN(C)CCC(=O)[C@@]1(O)CC[C@H]2[C@@H]3CC=C4C[C@@H](O)CC[C@]4(C)[C@H]3CC[C@@]21C`, for which the GI50 with HT-29 was 18.9 µM (inactive); in the assay on OVCAR-8, 20.2 µM (inactive); with U-251, 17.3 µM (inactive); with M14, 18.2 µM (inactive); in the assay with SF-295, 24.9 µM (inactive); in the assay on OVCAR-3, 9.02 µM (inactive). In addition, the GI50 with HCT-15 is 20.1 µM; with SW-620, 17.9 µM (inactive); with SK-MEL-28, 17.2 µM (inactive); with MCF7 it was 4.38 µM (inactive); in the assay with RXF 393, 9.2 µM (inactive); in the assay with A549, 37.1 µM (inactive). Further, the GI50 in the assay on SK-MEL-5 is 29.9 µM (inactive); with NCI-H522, 11.9 µM (inactive); with PC-3, 13.4 µM (inactive); with CAKI-1 it was 17.5 µM (inactive); in the assay on MDA-MB-231, 18.5 µM (inactive); in the assay on SN12C it was 16.9 µM (inactive). Also, the GI50 with OVCAR-4 is 33.4 µM (inactive); in the assay with HOP-92, 20.9 µM (inactive).
